Like-named read-outs stand apart in the source and are kept apart here.
Legend:
[1] = Plasma protein binding, rapid equilibrium dialysis, human plasma; assay type: in vitro ADME; settings: human, plasma, pH 7.4, human plasma
Protocol: (§1) Plasma Protein Binding Studies. The rapid equilibrium dialysis (RED) device inserts along with a Teflon base plate (Pierce, Rockford, Ill.) were used for the binding studies. The pH of the human or mouse plasma was adjusted to 7.4 prior to the experiment. DMSO stocks (1 mM) were spiked into the plasma to make a final concentration of 2 μM. The spiked plasma solutions (300 μL) were placed into the sample chamber (indicated by the red ring); and 500 μL of PBS buffer, pH 7.4, was placed into the adjacent chamber. The plate was incubated at 37° C. on an orbital shaker (250 rpm) for 4 hours.
(§2) After 4 hours, from the RED plate, aliquots (100 μL) were removed from each side of the insert (plasma and buffer) and dispensed into the 96-well plate. Subsequently, 100 μL of blank plasma was added to the buffer samples and 100 μL of blank buffer was added to all the collected plasma samples. 300 μL of quench solution (50% acetonitrile, 50% methanol, and 0.05% formic acid, warmed up at 37° C.) containing internal standards was added to each well. Plates were sealed, vortexed, and centrifuged at 4° C. for 15 minutes at 4000 rpm. The supernatant was transferred to fresh plates for LC/MS/MS analysis. The sample were analyzed on LC/MS/MS using an AB Sciex API 4000 instrument, coupled to a Shimadzu LC-20AD LC Pump system. Analytical samples were separated using a Waters Atlantis T3 dC18 reverse phase HPLC column (20 mm×2.1 mm) at a flow rate of 0.5 mL/min. The mobile phase consisted of 0.1% formic acid in water (solvent A) and 0.1% formic acid in acetonitrile (solvent B).
(§3) The percentage of test compound bound to protein was calculated by the following equations:
(§4) % Free=(Concentration in buffer chamber/Concentration in plasma chamber)×100%

plasma protein = assay: as above; assay type: in vitro ADME; settings: plasma (rapid equilibrium dialysis device), pH 7.4, human plasma
Protocol: as §1, §2, §3, §4

COc1cccc2c1-c1ccc3c(c1C(Cc1ccc(F)cc1)O2)C(C)=CC(C)(C)N3 (racemic) [YJH08, 5-(4-fluorobenzyl)-10-methoxy-2,2,4-trimethyl-2,5-dihydro-1H-chromeno[3,4-f]quinoline] showed a fraction unbound at 4 h, 2 μM ([1]; duplicate, read-out: % Bound (converted)) of less than 0.0001, a fraction unbound at 4 h, 2 μM ([1]; read-out: % Bound Average (converted)) of less than 0.0001 and a recovery at 4 h, 2 μM (plasma protein) of 97.6%.

From patent publication US20220280661A1, “GLUCOCORTICOID RECEPTOR RADIOLIGANDS AND METHODS FOR THEIR PREPARATION AND USE” (The Regents of the University of California, priority 2019, published 2022)
